Experimental data published in patent US12322837B2, “Electrochemical reduction of halogenated compounds comprising a haloalkane” (Massachusetts Institute of Technology, priority 2021, dated 2025).
Converted amounts (≈) assume the structure as drawn.

Experiments:
[1] = Ionic conductivity of NO2-Ph-SF5-containing electrolytes; assay type: physicochemical
Excerpt: Theoretical capacities correspond to 8 e^−per molecule. Capacities increased from 292 to 362 mAh·gsub-stack^−1 as concentration increased from 3 M to 4 M, beyond which further gains were negligible. The maximum gravimetric energy of 1085 Wh·kgsub-stack^−1 was obtained at 4.5 M. Capacity and energy decreased with concentrations exceeding 4.5 M due to diminishing supporting solvent (DMSO, ˜16 wt. % of the catholyte at 5 M), which led to significant decline in ionic conductivity from 6.4 to 0.6 mS·cm^−1 from 0.1 M to 5 M (FIG. 24). Additionally, low DMSO content decreases the ability to solubilize LiF, making electrode passivation effects more severe. Capacities remained constant at ˜362 mAh·gsub-stack^−1 from 0.3-1.0 mA·cm^−2 (0.01 C-0.04 C) and decreased moderately thereafter up to 3 mA·cm^−2 (0.12 C), indicating excellent rate capability.

[2] = Solubility/miscibility of reactants in DMSO or 0.1 M LiClO4/DMSO; assay type: physicochemical; settings: for miscibility with 0.1 M LiClO4/DMSO: even at 50° C.
Excerpt: To understand the effect of the chain length of the RF group, the discharge profiles of Ph-NO2-C6 (o) vs. Ph-NO2-C8 (o) and Ph-CN-C6 (p) vs. Ph-CN-C8 (p) were compared. As is shown in FIG. 5, up to 11 e- or 15 e- transfer per molecule (calculated based on capacities) can be obtained during discharge for C6 or C8 containing reactants, respectively. […] For example, Ph-CN-C6 (p) is liquid and miscible with DMSO at RT, but its C8 counterpart is solid at RT and is only soluble at elevated temperatures (e.g., 50° C.).

miscibility with 0.1 M LiClO4/DMSO [2]	Structure (SMILES)	solubility / reachable concentration in 0.1 M LiClO4/DMSO ([2]; RT)	further results
–	O=[N+]([O-])c1ccc(S(F)(F)(F)(F)F)cc1 [NO2-Ph-SF5, 4-Nitrophenylsulfur pentafluoride]	–	ionic conductivity of electrolyte ([1]; 0.1 M NO2-Ph-SF5): 6.4 mS·cm^−1; ionic conductivity of electrolyte ([1]; 5 M NO2-Ph-SF5): 0.6 mS·cm^−1
negligible miscibility	FC(F)(F)c1ccccc1C=CC(F)(F)C(F)(F)C(F)(F)C(F)(F)C(F)(F)C(F)(F)F [Ph-CF3—C6 (o)]	–	–
negligible miscibility	FC(F)(F)c1ccc(C=CC(F)(F)C(F)(F)C(F)(F)C(F)(F)C(F)(F)C(F)(F)F)cc1 [Ph-CF3—C6 (p)]	–	–
–	N#Cc1ccc(C=CC(F)(F)C(F)(F)C(F)(F)C(F)(F)C(F)(F)C(F)(F)F)cc1 [Ph-CN-C6 (p)]	–	miscibility with DMSO ([2]; RT): miscible
–	N#Cc1ccc(C=CC(F)(F)C(F)(F)C(F)(F)C(F)(F)C(F)(F)C(F)(F)C(F)(F)C(F)(F)F)cc1 [Ph-CN-C8 (p)]	not soluble	solubility limit in 0.1 M LiClO4/DMSO ([2]; 50° C.): 800 mM (≈ 438 mg/mL)
–	O=[N+]([O-])c1ccccc1C=CC(F)(F)C(F)(F)C(F)(F)C(F)(F)C(F)(F)C(F)(F)C(F)(F)C(F)(F)F [Ph-NO2—C8 (o)]	2000 mM (≈ 1130 mg/mL)	–
